Several values for one entry are separate records, joined by “and”; a condition that tells them apart may be missing. Identical values can stand only once. Like-named read-outs stand apart in the source and are kept apart here.
Columns and labels:
[1] = test system: A. fumigatus cell membrane potential; experiment: Membrane potential determination, DiBAC4(3); format: cell-based, Aspergillus fumigatus; details: CAS 0.125 μg/ml, 30 minutes
Description: Membrane potential determination: […] Biotechnol., 2021, 14, 262-276) with modifications. […] After, the germlings were washed with sterile PBS (140 mM NaCl, 2 mM KCl, 10 mM NaHPO4, 1.8 mM KH2PO4, pH 7.4). The fluorescence was analyzed with excitation wavelength of 450-490 nm, and emission wavelength of 525-550 nm on the Observer Z1 fluorescence microscope (Carl Zeiss) using the 100× with Differential interference contrast (DIC) images. Fluorescent images were captured with an AxioCam camera (Carl Zeiss, Inc.) and processed using the Axio Vision software (version 4.8).

C. albicans = experiment: MIC for yeasts, CLSI M27-A3; format: cell-based, Candida albicans
A. fumigatus biofilms = experiment: Biofilm assay (XTT); details: Aspergillus fumigatus, read-out: inhibition of biofilm formation
Description: Biofilm assay: To test the susceptibility of pre-formed A. fumigatus biofilms to
VOR, CAS and to the combination of CAS+BRI and VOR+BRI, a suspension containing 10^6 conidia per mL of the wild-type strain (Δku80 pyrG^+) was prepared in liquid MM and 100 μL of it was inoculated in each well of a 96-well plate. After 24 hours of incubation at 37° C., 50 μL of fresh MM containing CAS, VOR or the combination of VOR and CAS with BRI was added to the biofilm to reach the final concentration as indicated and incubated for a further 12 hours at 37° C. Wells containing untreated conidia were used as a positive control. After, the metabolic activity of the cells was evaluated by adding 50 μL of an aqueous XTT solution (1 mg/mL of XTT and 125 μM of menadione) to each well. The plate was incubated for additional 1 hour at 37° C., centrifuged (2000 rpm, 5 minutes) and 100 μL of the supernatant was transferred to a flat-bottomed 96-well plate. The absorbance was measured at 450 nm on a plate reader (Synergy HTX Multi-Mode Reader- BioTek Instruments). The XTT assay's were performed in six replicates.

C. neoformans [2] = experiment: BRI+CAS against yeasts, colony forming units; details: CAS 16 μg/ml alone, 48 hours
Description: Combination of Brilacidin and caspofungin against yeasts: For measuring the effect of the combination BRI+CAS against yeast fungal pathogens, two methods were used: (i) metabolic activity by XTT-assay and (ii) colony forming units (CFUs). For the first method, C. neoformans, C. albicans, and C. auris 10^4 cells were inoculated in RPMI-1640 supplemented with CAS 0 to 32 μg/ml (for C. neoformans) and 0 to 1 μg/ml (for Candida spp.) or the same concentrations of CAS combined with BRI 0.625 μM (for C. neoformans), BRI 20 μM (for C. albicans), and BRI 10 μM (for C. auris). […] XTT-assays were also used for C. albicans caspofungin resistant strains but with CAS 0.5 μg/ml combined with BRI 5, 10 or 20 μM. The same experimental design was used for the CFUs determination, except that after 48 hours the cells present in the wells were plated on YPD (yeast extract 10g, peptone 20g, dextrose 20g, agar 20 g, water 1000 mL) and the plates were incubated at 30° C. for 24-48 hours for determining the survival percentage.

A. fumigatus [3] = experiment: Fungal burden, chemotherapeutic murine model of IPA; format: in vivo, BALB/c mice; details: CAS 1 mg/kg, 3 days post-infection, vs non-treated mice
Description: Fungal burden: Inbred female mice (BALB/c strain; body weight, 20-22 g) were housed in vented cages containing five animals. Mice were immunosuppressed with cyclophosphamide (150 mg per kg of body weight), which was administered intraperitoneally on days −4, −1 and 2 prior to and post infection (infection day is “day 0”). Hydrocortisonacetate (200 mg/kg body weight) was injected subcutaneously on day −3. Mice (5 mice per group) were anesthetized by halothane inhalation and infected by intranasal instillation of 20 μL of 1.0×10^6 conidia of A. fumigatus Δku80 pyrG^+ (wild-type) (the viability of the administered inoculum was determined by incubating a serial dilution of the conidia on MM medium, at 37° C.). As a negative control, a group of 5 mice received PBS only. […]
DNA quantity and quality were assessed using a NanoDrop 2000 spectrophotometer (Thermo Scientific). Quantitative real-time PCRs were performed using 400 ng of total DNA from each sample, and primers to amplify the 18S rRNA region of A. fumigatus and an intronic region of mouse GAPDH (glyceraldehyde-3-phosphate dehydrogenase). Six-point standard curves were calculated using serial dilutions of gDNA from A. fumigatus strain and the uninfected mouse lung. Fungal and mouse DNA quantities were obtained from the threshold cycle (Ct) values from an appropriate standard curve.

C. neoformans [4] = experiment: MIC for yeasts, CLSI M27-A3; format: cell-based, Cryptococcus neoformans; details: Cryptococcus neoformans H99; read-out: MIC CAS
A. fumigatus [5] = experiment: MIC/MEC, CLSI M38-A2; format: cell-based, Aspergillus fumigatus
C. auris = experiment: MIC for yeasts, CLSI M27-A3; format: cell-based, Candida auris
[6] = test system: A. fumigatus null mutants; experiment: Phosphatase and kinase null mutant screening; format: cell-based, Aspergillus fumigatus; also: key: +: sensitivity similar to wild-type; −: more sensitive than the wild-type
Description: Phosphatase and kinase null mutant screening: An A. fumigatus phosphatase deletion library encompassing 25 null mutants for phosphatase catalytic subunits (Winkelströter et al., G3 (Bethesda), 2015, 5, 1525-39) was screened for sensitivity to the combination of CAS+BRI. […] In each well a total of 200 μL of liquid MM plus conidia from the different mutants (1×10^4 conidia/mL) was incubated in the presence of BRI (20 μM).

chitin synthase genes = experiment: Chitin synthase mRNA accumulation (RT-qPCR); details: wild-type strain, 1 hour exposure; not in the mutant strains
Description: RNA-sequencing. cDNA synthesis and RTqPCR: All experiments were carried out in biological triplicates and conidia (10^7) were inoculated in liquid MM and A. fumigatus strains were grown for 16 hours at 37 ° C. and treated or not with different concentrations of BRI, CAS, or BRI+CAS for 1 hour. For total RNA isolation, mycelia were ground in liquid nitrogen and total RNA was extracted using TRIzol (Invitrogen), treated with RQ1 RNase-free DNase I (Promega), and purified using the RNAeasy kit (Qiagen) according to the manufacturer's instructions. RNA was quantified using a NanoDrop and Qubit fluorometer, and analyzed using an Agilent 2100 Bioanalyzer system to assess the integrity of the RNA.
For RT-qPCR, the RNA was reverse transcribed to cDNA using the ImProm-II reverse transcription system (Promega) according to manufacturer's instructions, and the synthesized cDNA was used for real-time analysis using the SYBR green PCR master mix kit (Applied Biosystems) in the ABI 7500 Fast real-time PCR system (Applied Biosystems, Foster City, CA, USA).
CrzA:GFP = CrzA:GFP translocation to the nucleus; details: CAS 0.07 μg/ml, 30 minutes
Description: Conidia were germinated in YG medium and grown for 13 hours and then exposed or not to BRI, CAS, and BRI+CAS for 30 minutes.

CC[C@H](C)C[C@H](C)CCCCCCCCC(=O)N[C@H]1C[C@@H](O)[C@@H](NCCN)NC(=O)[C@@H]2[C@@H](O)CCN2C(=O)[C@H]([C@H](O)CCN)NC(=O)[C@H]([C@H](O)[C@@H](O)c2ccc(O)cc2)NC(=O)[C@@H]2C[C@@H](O)CN2C(=O)[C@H]([C@@H](C)O)NC1=O [CAS, caspofungin]
16 µg/mL: MEC CAS (A. fumigatus [5]; A. fumigatus CM7555 CAS^R) | MEC CAS (A. fumigatus [5]; A. fumigatus DPL1033 CAS^R) | MEC CAS (A. fumigatus [5]; A. fumigatus MD24053 CAS^R) | MEC CAS (A. fumigatus [5]; CAS-resistant clinical strains DPL1033, MD24053, CM7555)
−: sensitivity, CAS (0.25 μg/mL) ([6]; ΔmpkA)
1 µg/mL: MIC (C. auris; Candidozyma auris, Candida auris 467/2015, read-out: MIC CAS)
32 µg/mL: MIC (C. neoformans [4])
about 50%: decrease of survival (CFUs) (C. neoformans [2])
induce some of these genes: chitin synthase gene expression (chitin synthase genes)
0.2 µg/mL and 0.25 µg/mL: MEC of CAS (A. fumigatus [5]; A. fumigatus)
0.25 µg/mL: MIC (C. albicans; Candida albicans SC5314, read-out: MIC CAS) | MEC CAS (A. fumigatus [5]; A. fumigatus WT) | MEC CAS (A. fumigatus [5]; A. fumigatus clinical isolates susceptible to CAS)
+: sensitivity, CAS (0.25 μg/mL) ([6]; Afs35 (wild-type; A1159)) | sensitivity, CAS (0.25 μg/mL) ([6]; CEA17 (wild-type; A1160)) | sensitivity, CAS (0.25 μg/mL) ([6]; ΔcalA (Afu5g09360)) | sensitivity, CAS (0.25 μg/mL) ([6]; ΔcdcA (Afu3g12250)) | sensitivity, CAS (0.25 μg/mL) ([6]; ΔdspA (Afu1g13040)) | sensitivity, CAS (0.25 μg/mL) ([6]; ΔdspB (Afu1g03540)) | sensitivity, CAS (0.25 μg/mL) ([6]; ΔdspD (Afu2g02760)) | sensitivity, CAS (0.25 μg/mL) ([6]; ΔltpA (Afu2g01880)) | sensitivity, CAS (0.25 μg/mL) ([6]; ΔmpkB) | sensitivity, CAS (0.25 μg/mL) ([6]; ΔmpkC) | sensitivity, CAS (0.25 μg/mL) ([6]; ΔnemA (Afu1g09460)) | sensitivity, CAS (0.25 μg/mL) ([6]; ΔpphA (Afu5g12010)) | sensitivity, CAS (0.25 μg/mL) ([6]; ΔppmA (Afu8g04580)) | sensitivity, CAS (0.25 μg/mL) ([6]; ΔppsA (Afu5g11690)) | sensitivity, CAS (0.25 μg/mL) ([6]; ΔpptA (Afu5g06700)) | sensitivity, CAS (0.25 μg/mL) ([6]; ΔppzA (Afu2g03950)) | sensitivity, CAS (0.25 μg/mL) ([6]; ΔpsrA (Afu1g04790)) | sensitivity, CAS (0.25 μg/mL) ([6]; ΔptcA (Afu1g15800)) | sensitivity, CAS (0.25 μg/mL) ([6]; ΔptcB (Afu1g09280)) | sensitivity, CAS (0.25 μg/mL) ([6]; ΔptcD (Afu5g13740)) | sensitivity, CAS (0.25 μg/mL) ([6]; ΔptcE (Afu2g03890)) | sensitivity, CAS (0.25 μg/mL) ([6]; ΔptcF (Afu1g06860)) | sensitivity, CAS (0.25 μg/mL) ([6]; ΔptcG (Afu5g13340)) | sensitivity, CAS (0.25 μg/mL) ([6]; ΔptcH (Afu4g00720)) | sensitivity, CAS (0.25 μg/mL) ([6]; ΔptpB (Afu3g10970)) | sensitivity, CAS (0.25 μg/mL) ([6]; ΔptyA (Afu6g06650)) | sensitivity, CAS (0.25 μg/mL) ([6]; ΔpypA (Afu4g04710)) | sensitivity, CAS (0.25 μg/mL) ([6]; ΔsakA) | sensitivity, CAS (0.25 μg/mL) ([6]; ΔsakA, ΔmpkC) | sensitivity, CAS (0.25 μg/mL) ([6]; ΔsitA (Afu6g11470)) | sensitivity, CAS (0.25 μg/mL) ([6]; ΔyphA (Afu4g07000))
28.3%: germlings with CrzA:GFP in the nuclei (CrzA:GFP)
~25%: fluorescent germlings (membrane depolarization) [1]
1.0 µg/mL: MIC CAS (C. auris; Candida auris 468/2015) | MIC CAS (C. auris; Candida auris 469/2015) | MIC CAS (C. auris; Candida auris 470/2015) | MIC CAS (C. auris; Candida auris 471/2015)
2 µg/mL: MIC (C. albicans; Candida albicans, read-out: MIC CAS, Candida albicans DPL1006 CAS^R (FKS1 F641L)) | MIC (C. albicans; Candida albicans, read-out: MIC CAS, Candida albicans DPL1010 CAS^R (FKS1 S645F))
4 µg/mL: MIC (C. albicans; Candida albicans, read-out: MIC CAS, Candida albicans DPL1007 CAS^R (FKS1 F641S)) | MIC (C. albicans; Candida albicans, read-out: MIC CAS, Candida albicans DPL1009 CAS^R (FKS1 S645Y)) | MIC (C. albicans; Candida albicans, read-out: MIC CAS, Candida albicans DPL1011 CAS^R (FKS1 S645F + R1361R/H))
~10%: inhibition at 0.25 µg/mL (A. fumigatus biofilms) | inhibition at 2 µg/mL (A. fumigatus biofilms)
approximately 50%: reduction of fungal burden in the lungs (A. fumigatus [3])

Source: patent US20240139188A1, “Arylamide Compounds For Treatment And Prevention Of Fungal Infections” (priority 2022, published 2024)
